# Values quoted from earlier work as cited in patent US4100185A, “Cyclohexanone 5,6-benzo analogues of prostaglandin E” (Miles Laboratories, Inc., priority 1977, dated 1978).
# Entries after “also recorded” stand apart in the source; their conditions may differ. Like-named read-outs stand apart in the source and are kept apart here.
# How the values were obtained:
# adrenal glands = settings: hypophysectimized rats
# [1] = test system: ovarian progesterone secretion; settings: sheep
# [2] = variety of mammals
# thyroid = settings: mice
# growth hormone = settings: rats
# tracheal smooth muscle = settings: in vitro
# blood platelets = settings: in vitro
# [3] = test system: motor pathways in the central nervous system
# gastric secretion [4] = settings: dogs
# [5] = test system: adrenergic nervie endings; settings: guinea pig
# [6] = test system: female reproductive system; settings: in vivo
# gastric secretion [7] = settings: man
Compound,effect on steroidogenesis in the adrenal glands (adrenal glands),effect on ovarian progesterone secretion [1],luteolytic effect [2],effect on thyroid activity (thyroid),effect on growth hormone (growth hormone),effect on tracheal smooth muscle (tracheal smooth muscle),effect on thrombogenesis (blood platelets),effect on transmission in motor pathways [3],effect on gastric secretion (gastric secretion [4]),effect on transmitter release from adrenergic nerve endings [5],"effect on fertility, gestation, labor [6]",effect on gastric secretion (gastric secretion [7])
CCCCC[C@H](O)/C=C/[C@@H]1[C@@H](CCCCCCC(=O)O)[C@@H](O)C[C@H]1O [PGF1α],stimulate steriodogenesis in the adrenal glands,inhibit ovarian progesterone secretion,act as luteolytic factors,increase thyroid activity,,,,,,,,
"CCCCC[C@H](O)/C=C/[C@H]1[C@H](O)CC(=O)[C@@H]1CCCCCCC(=O)O [PGE1, prostaglandin E1]",stimulate steriodogenesis in the adrenal glands,inhibit ovarian progesterone secretion,,increase thyroid activity,increase release of growth hormone,relax,inhibits thrombogenesis in vitro,retards,inhibit gastric secretion,inhibit transmitter release from adrenergic nervie endings,,
CCCCC[C@H](O)/C=C/[C@@H]1[C@@H](C/C=C\CCCC(=O)O)[C@@H](O)C[C@H]1O [PGF2α],,,,,,contracts the smooth muscle,,facilitates transmission in motor pathways in the central nervous system,,,has contragestational effects; also recorded: induces spontaneous abortions in early pregnancy,
CCCCC[C@H](O)/C=C/[C@@H]1[C@@H](CCCCCCC(=O)O)[C@H](O)C[C@H]1O [PGF1β],,,,increase thyroid activity,,,,,,,,
CCCCC[C@H](O)/C=C/[C@H]1[C@H](O)CC(=O)[C@@H]1C/C=C\CCCC(=O)O [PGE2],stimulate steriodogenesis in the adrenal glands,,,increase thyroid activity,increase release of growth hormone,relax,,,inhibit gastric secretion,inhibit transmitter release from adrenergic nervie endings,exerts potent oxytocic effects in inducing labor,
CCCCC[C@H](O)/C=C/[C@H]1C=CC(=O)[C@@H]1CCCCCCC(=O)O [PGA1],,,,,increased synthesis of that hormone,,,,inhibit gastric secretion,,,exhibits similar activity in man
